Data published in patent US20030083558A1, “Method of examining and diagnosing skin health” (priority 2001, published 2003).

What was measured:
IL-1 RA = test: Study 2: IL-1 RA in ISF by ELISA, effect of supplementation; format: in vivo, human
Description: (§1) The laser made four pores at each collection site.
(§2) The other skin analytes were measured in Study 2 using standard ELISA kits: MMP-1 (ELISA Cat # QIA55, Oncogene Research Products, Cambridge Mass.); Total IgE (ELISA Cat # RE59061, IBL, Hamburg, Germany distributed by KMI Diagnostics); Non Extraction IGF-1 (ELISA Cat # DSL-10-2800, Diagnostics Systems Laboratories, Webster Tex.); IL-1 RA (ELISA Cat # DRA00, R&D Systems, Minneapolis, Minn.); IL-1A (ELISA Cat # EH2IL1A, Pierce/Endogen, Rockford, Ill.).

MMP-1 = test: Study 2: MMP-1 in ISF by ELISA, effect of supplementation; format: in vivo, human
Description: as §1, §2

[1] = set-up: species or system human; settings: in vivo
Description: The studies included non-smoking, female subjects of good health over the age of 35 years and under the age 55 years with skin type of III or less by the Fitzpatrick Skin classification. […] Acceptable subjects were chronologically enrolled in the study following a randomization code describing what treatment would be applied to which dorsal forearm. […] The subject applied a blinded emulsion designated by a letter to one dorsal forearm and an alternative emulsion with a different designation to the opposite arm, twice per day, for three weeks. […] ISF was extracted from the dorsal forearm, volar upper arm, and serum at one week (“Week 2”) and three weeks after dosing (“Week 4”) and two weeks after the cessation of dosing (“Week 6”).
ISF was extracted from both the treatment site (dorsal forearm) as well as an adjacent, untreated site volar upper arm) following one week of therapy and three weeks of therapy. Subjects ended treatment at this point and returned for a final extraction two weeks later.
The ISF collection period lasted between three and six hours, typically four hours.

IgE = test: Study 2: IgE in ISF by ELISA, effect of supplementation; format: in vivo, human
Description: as §1, §2

IL-1A = test: Study 2: IL-1A in ISF by ELISA, effect of supplementation; format: in vivo, human
Description: as §1, §2

Question: With `O=C1O[C@H]([C@@H](O)CO)C(O)=C1O` [Vitamin C] as the molecule, how does the “Effect of vitamin C supplement on concentration of IL-1 RA in ISF” value (IL-1 RA) read?
Answer: Its value is “significantly increased”.

Question: And the “Effect of vitamin C supplement on concentration of MMP-1 in ISF” value (MMP-1)?
Answer: Its value is “significantly increased”.

Question: What about the “MMP-1 (log), Sun-exposed, Supplement Yes, MEAN” value (MMP-1; sun-exposed ISF) of the same molecule?
Answer: Its value is 0.64.

Question: What about the “MMP-1 (log), Sun-protected, Supplement Yes, MEAN” value (MMP-1; sun-protected ISF) of the same molecule?
Answer: The value was 0.91.

Question: And the “Influence of topical application on levels at an adjacent, untreated site or the serum” value [1]?
Answer: Its value is “does not influence”.

Question: And the “Level at application site two weeks after ending therapy (week six)” value [1]?
Answer: The value was “decreased to approximate baseline values”.

Question: What about the “Response of serum level to topical therapy” value [1] of the same molecule?
Answer: Its value is “did not respond”.

Question: What about the “Effect of vitamin C supplement on concentration of IgE in ISF” value (IgE) of the same molecule?
Answer: The value was “significantly increased”.

Question: What about the “Effect of vitamin C supplement on concentration of IL-1A in ISF” value (IL-1A) of the same molecule?
Answer: The value was “significantly increased”.
